The source of these data is patent US9499534B2, “Thiazole-substituted aminopyrimidines as spleen tyrosine kinase inhibitors” (priority 2013, dated 2016).

Data set [1] addresses recombinant human GST-SYK (Homo sapiens (Human), UniProt P43405). Put plainly: Homogeneous Time-Resolved Fluorescence (HTRF) Assay for the Recombinant Human Syk Enzyme. The data set is classed as biochemical. The settings on record: GST-SYK 5 pM, ATP 25 μM, biotinylated substrate peptide 250 nM, HTRF signal. As for the experimental part:
Homogeneous Time-Resolved Fluorescence (HTRF) Assay for the Recombinant Human Syk Enzyme
A recombinant GST-hSYK fusion protein was used to measure potency of compounds to inhibit human Syk activity. The recombinant human GST-SYK (Carna Biosciences #08-176) (5 pM final concentration) was incubated with various concentrations of the inhibitor diluted in DMSO (0.1% final concentration) for 10 minutes at room temperature in 15 mM Tris-HCl (pH 7.5), 0.01% tween 20, 2 mM DTT in 384 well plate format. To initiate the reaction the biotinylated substrate peptide (250 nM final concentration) that contains the phosphorylation site for Syk was added with magnesium (5 mM final concentration) and ATP (25 μM final concentration). Final volume of the reaction was 10 μL. Phosphorylation of the peptide was allowed to proceed for 45′ at room temperature. To quench the reaction and detect the phosphorylated product, 2 nM of a Europium-anti-phosphotyrosine antibody (Perkin Elmer #AD0161) and 70 nM SA-APC (Perkin-Elmer #CR130-100) were added together in 15 mM Tris pH 7.5, 40 mM EDTA, 0.01% tween 20. Final volume of the quenching solution was 10 μL.
The resulting HTRF signal was measured after 30 minutes on an EnVision (Perkin-Elmer) reader using a time-resolved fluorescence protocol. Table A below lists activities as IC50 values (nM) for representative compounds of the invention.
(In general: TR-FRET usually uses a lanthanide donor and a delayed reading to cut background.)

A further data set concerns PGD2. The settings on record: dosed intranasally, phase I/II study, allergic rhinitis; cited from earlier work.
The conditions of data set [2]: phase II clinical trial for allergic rhinitis; cited from earlier work.

One may read the IC50 as the concentration needed to halve the response being measured. As to `C=C(C)c1cc(Nc2nccc(C(F)(F)F)n2)cc(-c2cnc([C@]3(O)CC[C@@H](C(=O)O)C(C)(C)C3)s2)c1` (single isomer, unassigned) [Example 2.30, (1R,4S or 1S,4R)-4-hydroxy-2,2-dimethyl-4-{5-[3-(1-methylethenyl)-5-{[4-(trifluoromethyl)pyrimidin-2-yl]amino}phenyl]-1,3-thiazol-2-yl}cyclohexanecarboxylic acid], the IC50 in data set [1] was found to be 3.94 nM.
Same read-out and setting: then `CC1(C)C[C@@](O)(c2ncc(-c3cc(Nc4nccc(C(F)(F)F)n4)cc(-c4nccs4)c3)s2)CC[C@@H]1C(=O)O` (single isomer, unassigned) [Example 3.1, (1R,4S or 1S,4R)-4-Hydroxy-2,2-dimethyl-4-(5-(3-(thiazol-2-yl)-5-((4-(trifluoromethyl)pyrimidin-2-yl)amino)phenyl)thiazol-2-yl)cyclohexanecarboxylic acid], with 2.5 nM; and `CC1(C)C[C@](O)(c2ncc(-c3cc(Nc4nccc(C(F)(F)F)n4)cc(-c4cccs4)c3)s2)CC[C@H]1C(=O)O` (single isomer, unassigned) [Example 3.2, (1R,4S or 1S,4R)-4-hydroxy-2,2-dimethyl-4-[5-(3-thiophen-2-yl-5-{[4-(trifluoromethyl)pyrimidin-2-yl]amino}phenyl)-1,3-thiazol-2-yl]cyclohexanecarboxylic acid], with 12.4 nM; and `CC1(C)C[C@](O)(c2ncc(-c3cc(Nc4nccc(C(F)(F)F)n4)cc(-c4ccc(C#N)c(F)c4)c3)s2)CC[C@H]1C(=O)O` (single isomer, unassigned) [Example 3.3, (1R,4S or 1S,4R)-4-[5-(4′-cyano-3′-fluoro-5-{[4-(trifluoromethyl)pyrimidin-2-yl]amino}biphenyl-3-yl)-1,3-thiazol-2-yl]-4-hydroxy-2,2-dimethylcyclohexanecarboxylic acid], with 34.8 nM.
The same measure, in the same setting: then `OC1(c2ncc(-c3cc(Nc4nccc(C(F)(F)F)n4)cc(-c4nnn[nH]4)c3)s2)CCC1` [Example 1.4, 1-(5-(3-(1H-Tetrazol-5-yl)-5-((4-(trifluoromethyl)pyrimidin-2-yl)amino)phenyl)thiazol-2-yl)cyclobutanol], with 77.7 nM; and `COc1cc(Nc2nccc(C(F)(F)F)n2)cc(-c2cnc([C@]3(O)CC[C@@H](C(=O)O)CC3)s2)c1` [Example 1.6, cis-4-Hydroxy-4-(5-(3-methoxy-5-((4-(trifluoromethyl)pyrimidine-2-yl)amino)phenyl)thiazol-2-yl)cyclohexanecarboxylic acid], with 1.29 nM.
Still for that read-out and setting: for `N#Cc1cc(Nc2nccc(C(F)(F)F)n2)cc(-c2cnc(C3(O)CCC(C(=O)O)CC3)s2)c1` (stereo not drawn) [Example 1.7, cis 4-[5-(3-cyano-5-{[4-(trifluoromethyl)pyrimidin-2-yl]amino}phenyl)-1,3-thiazol-2-yl]-4-hydroxycyclohexanecarboxylic acid] the value was 8.48 nM.
In the case of `Oc1cccc(Nc2ncc(F)c(Nc3cccc(O)c3)n2)c1` [Example R112], in the data set on PGD2, the clinical safety result was “safe across a range of indicators” and the “decrease in PGD2” value was “statistically significant decrease”. The efficacy versus placebo result in data set [2] is reported as “lack of efficacy versus placebo”.
